According to patent US6500865B1, “Sulfonamide derivatives” (Eli Lilly and Company, priority 1998, dated 2002):

Biological target: T1, human GluR4B receptor (Homo sapiens, UniProt P48058)
T1 construct: expressed in transfected cells
Assay: potentiation of agonist-induced excitability of human GluR4B receptor expressed in HEK 293 cells
Format: cell-based
Details: human GluR4B expressed in HEK 293 cells; qualitative statement
Text: The ability of compounds of formula I to potentiate glutamate receptor-mediated response may be determined using fluorescent calcium indicator dyes (Molecular Probes, Eugene, Oreg., Fluo-3) and by measuring glutamate-evoked efflux of calcium into GluR4 transfected HEK293 cells, as described in more detail below.
In one test, 96 well plates containing confluent monolayers of HEK cells stably expressing human GluR4B (obtained as described in European Patent Application Publication Number EP-A1-583917) are prepared. The tissue culture medium in the wells is then discarded, and the wells are each washed once with 200 μl of buffer (glucose, 10 mM, sodium chloride, 138 mM, magnesium chloride, 1 mM, potassium chloride, 5 mM, calcium chloride, 5 mM, N-[2-hydroxyethyl]-piperazine-N-[2-ethanesulfonic acid], 10 mM, to pH 7.1 to 7.3). […]
Each test is then performed as follows. […] A second fluorescent reading is taken after 5 minutes incubation. 15 μl of 400 μM glutamate solution is then added to each well (final glutamate concentration 100 μM), and a third reading is taken. The activities of test compounds and cyclothiazide solutions are determined by subtracting the second from the third reading (fluorescence due to addition of glutamate in the presence or absence of test compound or cyclothiazide) and are expressed relative to enhance fluorescence produced by 100 μM cyclothiazide.

T1 sequence (P48058 21-902): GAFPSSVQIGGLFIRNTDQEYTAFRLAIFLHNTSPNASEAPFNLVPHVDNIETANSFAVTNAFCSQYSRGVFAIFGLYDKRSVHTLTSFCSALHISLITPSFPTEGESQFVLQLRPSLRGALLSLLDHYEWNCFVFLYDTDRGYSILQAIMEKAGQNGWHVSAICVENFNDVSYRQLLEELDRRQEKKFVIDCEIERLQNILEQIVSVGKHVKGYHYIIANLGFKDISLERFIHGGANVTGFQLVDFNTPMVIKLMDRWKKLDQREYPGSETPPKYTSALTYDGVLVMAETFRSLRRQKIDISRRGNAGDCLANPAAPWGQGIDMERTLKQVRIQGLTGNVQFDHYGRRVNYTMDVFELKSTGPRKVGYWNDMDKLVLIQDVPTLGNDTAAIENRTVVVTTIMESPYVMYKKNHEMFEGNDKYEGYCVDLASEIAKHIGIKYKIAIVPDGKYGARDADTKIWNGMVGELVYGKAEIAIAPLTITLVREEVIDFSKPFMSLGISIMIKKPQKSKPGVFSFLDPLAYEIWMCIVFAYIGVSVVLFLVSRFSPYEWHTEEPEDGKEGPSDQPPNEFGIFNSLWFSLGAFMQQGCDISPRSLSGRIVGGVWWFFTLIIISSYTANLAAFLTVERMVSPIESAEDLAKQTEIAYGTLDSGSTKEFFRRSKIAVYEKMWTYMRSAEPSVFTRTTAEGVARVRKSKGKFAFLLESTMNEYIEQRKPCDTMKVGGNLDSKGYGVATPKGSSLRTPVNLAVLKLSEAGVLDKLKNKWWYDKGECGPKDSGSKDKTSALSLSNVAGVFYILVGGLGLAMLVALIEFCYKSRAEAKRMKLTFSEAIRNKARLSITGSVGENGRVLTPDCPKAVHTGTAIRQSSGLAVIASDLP

NS(=O)(=O)c1cc2c(cc1Cl)NC(C1CC3C=CC1C3)NS2(=O)=O (stereo not shown) [cyclothiazide]
potentiation of agonist-induced excitability of human GluR4B receptor: potentiate
